Assay results reported in the NIST ThermoML archive (doi:10.1016/j.fluid.2014.04.002).
± gives the expanded uncertainty stated by the source.

Experiment: xn = mol fraction of the nth substance listed
Conditions: 101 kPa, Liquid; for viscosity: Concentric cylinders viscometry; for mass density: Vibrating tube method

CCOC(=O)C(C)O (stereo not drawn) [DL-ethyl lactate] + OCCCO
Conditions	mass density, 288.15 K [kg/m3]	mass density, 293.15 K [kg/m3]	mass density, 298.15 K [kg/m3]	mass density, 303.15 K [kg/m3]	viscosity, 288.15 K [mPa·s]	viscosity, 293.15 K [mPa·s]	viscosity, 298.15 K [mPa·s]	viscosity, 303.15 K [mPa·s]
x1 = 0.1001	1056.19 ± 0.95	1052.84 ± 0.95	1049.47 ± 0.94	1046.08 ± 0.93	51.26 ± 0.97	40.04 ± 0.77	31.54 ± 0.61	25.3 ± 0.49
x1 = 0.2001	1055.73 ± 0.95	1052.12 ± 0.94	1048.48 ± 0.94	1044.83 ± 0.93	38.55 ± 0.74	30.14 ± 0.58	23.97 ± 0.46	19.39 ± 0.37
x1 = 0.3	1054.58 ± 0.95	1050.74 ± 0.94	1046.87 ± 0.93	1042.98 ± 0.93	28.06 ± 0.54	22.16 ± 0.43	17.76 ± 0.34	14.35 ± 0.28
x1 = 0.3998	1053.41 ± 0.95	1049.3 ± 0.94	1045.13 ± 0.93	1041.02 ± 0.92	20.15 ± 0.39	16.06 ± 0.31	12.92 ± 0.25	10.58 ± 0.2
x1 = 0.4996	1051.81 ± 0.94	1047.46 ± 0.94	1043.1 ± 0.93	1038.71 ± 0.92	14.63 ± 0.28	11.78 ± 0.23	9.585 ± 0.18	7.942 ± 0.15
x1 = 0.5997	1049.85 ± 0.94	1045.28 ± 0.93	1040.69 ± 0.92	1036.07 ± 0.91	10.55 ± 0.2	8.579 ± 0.16	7.071 ± 0.14	5.912 ± 0.11
x1 = 0.7	1047.67 ± 0.94	1042.88 ± 0.93	1038.07 ± 0.92	1033.23 ± 0.91	7.714 ± 0.15	6.35 ± 0.12	5.296 ± 0.1	4.482 ± 0.086
x1 = 0.8	1045.16 ± 0.93	1040.14 ± 0.92	1035.11 ± 0.91	1030.05 ± 0.9	5.639 ± 0.11	4.704 ± 0.091	3.974 ± 0.077	3.405 ± 0.066
x1 = 0.8997	1042.56 ± 0.93	1037.34 ± 0.91	1032.1 ± 0.9	1026.83 ± 0.89	4.327 ± 0.083	3.583 ± 0.069	3.071 ± 0.059	2.661 ± 0.051
x1 = 1	1039.28 ± 0.92	1033.84 ± 0.91	1028.39 ± 0.9	1022.92 ± 0.88	3.207 ± 0.062	2.75 ± 0.053	2.39 ± 0.046	2.097 ± 0.041
